In this assay the target is Arachidonate 5-lipoxygenase (Homo sapiens). In words: Tested for inhibitory activity against leukotriene B4 (LTB4) production in human neutrophils.

pIC50: −log10 of the molar value.

What is called pIC50 is the negative decadic logarithm of the IC50, by convention in mol/L. A low value points to a high IC50.

Compound `Cc1c(O)c(C)c2sc(NCc3ccc(S(N)(=O)=O)cc3)nc2c1C` [4-[(6-Hydroxy-4,5,7-trimethyl-benzothiazol-2-ylamino)-methyl]-benzenesulfonamide] had a pIC50 of 7.52.

Values taken from BindingDB's records for doi:10.1021/jm00045a011 (Eisai, 1994).
